Reference: ChEMBL document CHEMBL5441451, “ASAP - In vitro cytotoxicity” (2024)
Values joined by “and” are separate entries in the source; they are usually repeats but may differ in a detail not shown here. Equal values may be shown once.

Experiments:
[1] = (§1) Functional metabolic assay to measure dose dependent changes in cell viability from drug treatment in HeLa-ACE2 cells. Hela-ACE2 cells are seeded prior to drug treatment, then incubated in MTT (3-[4,5-dimethylthiazol-2-yl]-2,5- diphenyltetrazolium bromide) labelling reagent and SDS. Absorbance is measured at 560 and 750 nm and analyzed by Gen5 software. The assay has been performed by Icahn School of Medicine at Mount Sinai.; assay type: toxicity, cell-based; conditions: human
[2] = as §1, with “iPSC-Pneumocyte” for “HeLa-ACE2”, “The” for “Hela-ACE2”, “seeded” for “seeded prior to drug treatment,”, “labeling” for “labelling”; assay type: toxicity, cell-based; conditions: human
[3] = Functional metabolic assay to measure dose dependent changes in cell viability from drug treatment in Vero E6/TMPRSS2 cells (cotreated with P-gp inhibitor, Elacridar). Cells are treated with antiviral candidates that have been serially diluted. Cytotoxicity is reported via measuring absorbance and analysis of MTT/MTS assays in uninfected cells. The assay has been performed by Icahn School of Medicine at Mount Sinai.; assay type: toxicity, cell-based, VeroE6/TMPRSS2; conditions: chlorocebus sabaeus
[4] = Vero E6/TMPRSS2 cells, with Elacridar (P-gp inhibitor), concentration not stated

Row | Compound | CC10 ([1]; hela-ace2) | CC50 ([2]; iPSC-Pneumocyte cells) | CC10 ([2]; pneumocyte) | CC50 ([1]; HeLa-ACE2 cells) | other results
1 | CC(C)[C@@H](Nc1ncnc2[nH]ccc12)c1ccc2c(c1)S(=O)(=O)CCC2 | > 50 µM and > 20 µM | > 50 µM | > 50 µM | – | CC50 ([1]; hela-ace2): > 50 µM
2 | CC(C)[C@@H](Nc1ncnc2[nH]c(-c3cnn(CC(N)=O)c3)cc12)c1ccc2c(n1)OCCO2 | – | > 50 µM | > 50 µM | – | –
3 | CC(C)[C@@H](Nc1ncnc2[nH]ccc12)c1ccc2c(c1)NC(=O)CO2 | > 50 µM | > 50 µM | > 50 µM | > 50 µM | –
4 | C[C@H](C(=O)O)[C@@H](NC(=O)c1ncnc2[nH]ccc12)c1ccc(Br)cc1 | > 20 µM | – | – | > 20 µM | CC50 [3, 4]: > 5 µM; CC10 ([3]; veroe6/tmprss2): > 5 µM
5 | CC(C)[C@@H](Nc1ncnc2[nH]c(-c3cnn(C)c3C#N)cc12)c1ccc2c(c1)OCCO2 | > 50 µM | – | 24.479 µM and > 50 µM | > 50 µM | CC50 ([2]; pneumocyte): 18.1 µM and > 50 µM
6 | CC(C)[C@@H](Nc1ncnc2[nH]c(C(=O)N[C@H]3CCN(C)C3)cc12)c1ccc2c(c1)S(=O)(=O)CCC2 | > 20 µM | > 50 µM | > 50 µM | > 20 µM | –
7 | CCNC(=O)c1cc2c(N[C@H](c3ccc4c(c3)OCCO4)C(C)C)ncnc2[nH]1 | > 20 µM | – | – | > 20 µM | –
8 | CNC(=O)c1cc2c(N[C@@H](c3ccc4c(c3)S(=O)(=O)CCC4)C(C)C)ncnc2[nH]1 | > 20 µM | – | – | > 20 µM | –
9 | CC(C)[C@@H](Nc1ncnc2[nH]c(-c3ccc4nnn(C)c4c3)cc12)c1ccc2c(c1)S(=O)(=O)CCC2 | > 20 µM | – | – | > 20 µM | –
10 | CNC(=O)Cn1cc(-c2cc3c(N[C@H](c4ccc5c(c4)S(=O)(=O)CCC5)C(C)C)ncnc3[nH]2)cn1 | > 20 µM | > 50 µM | > 50 µM | > 20 µM | –
11 | CNC(=O)c1cccc(-c2cc3c(N[C@H](c4ccc5c(c4)S(=O)(=O)CCC5)C(C)C)ncnc3[nH]2)c1 | > 20 µM | – | – | > 20 µM | –
12 | CC(C)[C@@H](Nc1ncnc2[nH]cc(C(=O)NC3CC3)c12)c1ccc2c(c1)S(=O)(=O)CCC2 | > 20 µM | – | – | > 20 µM | –
13 | CC(C)[C@@H](Nc1ncnc2[nH]c(-c3cnn(CC(=O)N(C)C)c3)cc12)c1ccc2c(c1)OCCO2 | > 20 µM | – | – | > 20 µM | –
14 | COc1ccc([C@@H](Cc2nnn[nH]2)NC(=O)c2ncnc3[nH]ccc23)cc1 | > 20 µM | – | – | > 20 µM | –
15 | CC(C)[C@@H](Nc1ncnc2[nH]c(-c3cnn(CC(N)=O)c3)cc12)c1ccc2c(c1)S(=O)(=O)CCC2 | > 20 µM | – | – | > 20 µM | –
16 | CC(C)[C@H](Nc1ncnc2[nH]ccc12)c1ccc2c(c1)S(=O)(=O)CCC2 | > 20 µM | – | – | > 20 µM | CC50 ([3]; veroe6/tmprss2): > 20 µM
17 | Cn1ncc(-c2cc3c(N[C@@H](c4ccc5c(c4)OCCO5)C(C)(C)C)ncnc3[nH]2)c1C#N | > 20 µM | 48.6 µM | > 50 µM | > 20 µM | –
18 | CC(C)[C@@H](Nc1ncnc2[nH]c(C(N)=O)cc12)c1ccc2c(c1)OCCO2 | < 0.082 µM | > 50 µM | > 50 µM | < 0.082 µM | –
19 | CNC(=O)c1cccc(-c2cc3c(N[C@@H](c4ccc5c(c4)S(=O)(=O)CCC5)C(C)C)ncnc3[nH]2)c1 | > 20 µM | – | – | > 20 µM | –
20 | CNCc1cc(-c2cc3c(N[C@@H](c4ccc5c(c4)S(=O)(=O)NCC5)C(C)C)ncnc3[nH]2)co1 | > 20 µM | > 50 µM | > 50 µM | > 20 µM | –
21 | CC(C)[C@@H](Nc1ncnc2[nH]c(-c3ccc4cncn4c3)cc12)c1ccc2c(c1)S(=O)(=O)CCC2 | > 20 µM | – | – | > 20 µM | –
22 | CC(C)[C@H](Nc1ncnc2[nH]c(-c3cnn(C)c3C#N)cc12)c1ccc2c(n1)OCCO2 | > 20 µM and > 50 µM | – | – | > 20 µM | CC50 ([1]; hela-ace2): 12.5 µM; CC50 [3, 4]: > 5 µM; CC10 ([3]; veroe6/tmprss2): > 5 µM
23 | CC(C)[C@H](Nc1ncnc2[nH]c(-c3cnn(C)c3C#N)cc12)c1ccc2c(c1)NC(=O)CO2 | > 20 µM | – | – | > 20 µM | –
24 | CC(C)[C@@H](Nc1ncnc2[nH]c(-c3cnn(C)c3C#N)cc12)c1ccc2c(n1)NC(=O)CO2 | > 20 µM | – | – | > 20 µM | –
25 | CC(C)[C@H](Nc1ncnc2[nH]c(-c3cnn(C)c3C#N)cc12)c1ccc2c(c1)S(=O)(=O)CCC2 | > 20 µM | – | – | > 20 µM | –
26 | CNCc1cc(-c2cc3c(N[C@H](c4ccc5c(c4)S(=O)(=O)CCC5)C(C)C)ncnc3[nH]2)co1 | > 20 µM | – | – | > 20 µM | –
